We go through 2 compounds from patent US10220048B2, “Compositions and methods for treating ocular diseases” (Aerpio Therapeutics, Inc., priority 2013, dated 2019).

A word on the IC50: it is the point on the concentration scale where inhibition reaches its midpoint.

One assay deals with HPTP-β (Homo sapiens (Human), UniProt P23467). Kind of assay: HPTP-β inhibition (IC50). The settings on record: read-out: HPTPβ IC50. In kind it is biochemical.
Assay [1] relates to patients with diabetic macular edema. Kind of assay: Central Foveal Thickness by ocular coherence tomography in diabetic macular edema patients given the disclosed compound subcutaneously plus intravitreal anti-VEGF agent. In kind it is in vivo, human. As for the experimental part:
The disclosed Figures represent a control or baseline study used as a benchmark for determining the effectiveness of the disclosed methods for treating ocular diseases (FIGS. 1 and 3) and studies directed to the disclosed methods. Described herein below, four patients with visual acuity loss due to diabetic macular edema (central retinal thickness [CRT] of more than 325 microns and best corrected visual acuity less than 70 letters) were treated with subcutaneous injections of 5 mg of the disclosed compound twice a day for 28 days and then observed for an additional two months (days 28 through 84). At any time during the course of the study, investigators could administer additional therapy consisting of intravitreal injection of an anti-VEGF agent, for example, ranibizumab, bevacizumab and/or aflibercept if considered by the investigator to be medically necessary. Retinal thickness as measured by ocular coherence tomography and best corrected visual acuity as measured by a standard vision test were assessed at regular intervals during the 28 day active treatment phase and through the 2 month post-treatment observation phase, (Screening, Day 1 [baseline], Day 7, Day 14, Day 21, Day 28, Day 42, Day 56 and Day 84). The main efficacy outcomes for the study were change in CRT and visual acuity over time with treatment. FIG. 2 depicts the results of a study wherein 4 patients received 5 mg of the disclosed compound subcutaneously twice daily for 28 days and subsequently were treated in one or both eyes (7 eyes total) with either ranibizumab (0.3 or 0.5 mg) or aflibercept (2 mg) by intravitreal injection at the discretion of the study investigator. […] The mean change in Central Foveal Thickness was −289 μm, approximately double the reduction seen 7 days to one month after ranibizumab injection in the benchmark study as depicted in FIG. 1. FIG. 5 represents the results of a single patient. The eye having the greater Central Foveal Thickness is chosen as the Study Eye. The patient from day one was given 5 mg of the disclosed compound subcutaneously twice daily. At week 3 (21 days, indicated by arrow) the fellow eye is treated with 0.5 mg of ranibizumab. At week 6 (42 days, indicated by arrow) the treated eye is treated with 0.5 mg of ranibizumab. […] Without wishing to be limited by theory, it is believed that when the fellow eye is treated with an injection of 0.5 mg of ranibizumab, the ranibizumab enters the study eye systemically. […] At week 6, the study eye is treated with an intravitreal injection of 0.5 mg of ranibizumab. As depicted in FIG. 5, by week 8, there is an overall reduction in CFT of approximately 690 μm, wherein the CFT of the subject eye is approximately 180 μm. Although the Fellow Eye began with less CFT than the study eye, nevertheless, treatment with ranibizumab at week 3 (day 21) produced a change in CFT of approximately 430 μm. […] FIG. 6 represents the results of a single patient. The eye having the greater Central Foveal Thickness is chosen as the Treated Eye (Study Eye). The patient from day one was given 5 mg of the disclosed compound subcutaneously twice daily. At week 3 (21 days, indicated by arrow) the fellow eye is rescued with 2 mg of aflibercept. […] At week 6 (42 days, indicated by arrow) the treated eye is rescued with 2 mg of aflibercept. […] The disclosed Figures represent a control or baseline study used as a benchmark for determining the effectiveness of the disclosed methods for treating ocular diseases (FIGS. 1 and 3) and studies directed to the disclosed methods. Described herein below, four patients with visual acuity loss due to diabetic macular edema (central retinal thickness [CRT] of more than 325 microns and best corrected visual acuity less than 70 letters) were treated with subcutaneous injections of 5 mg of the disclosed compound twice a day for 28 days and then observed for an additional two months (days 28 through 84). […]

For assay [2] the test system is unchanged. Kind of assay: Best corrected visual acuity (letters) in diabetic macular edema patients given the disclosed compound subcutaneously plus intravitreal anti-VEGF agent. In kind it is in vivo, human. The following applies: 5 mg s.c. twice daily 28 days, then ranibizumab or aflibercept intravitreal; 14-28 days post anti-VEGF (FIG. 4). As for the experimental part:
The disclosed Figures represent a control or baseline study used as a benchmark for determining the effectiveness of the disclosed methods for treating ocular diseases (FIGS. 1 and 3) and studies directed to the disclosed methods. Described herein below, four patients with visual acuity loss due to diabetic macular edema (central retinal thickness [CRT] of more than 325 microns and best corrected visual acuity less than 70 letters) were treated with subcutaneous injections of 5 mg of the disclosed compound twice a day for 28 days and then observed for an additional two months (days 28 through 84). At any time during the course of the study, investigators could administer additional therapy consisting of intravitreal injection of an anti-VEGF agent, for example, ranibizumab, bevacizumab and/or aflibercept if considered by the investigator to be medically necessary. Retinal thickness as measured by ocular coherence tomography and best corrected visual acuity as measured by a standard vision test were assessed at regular intervals during the 28 day active treatment phase and through the 2 month post-treatment observation phase, (Screening, Day 1 [baseline], Day 7, Day 14, Day 21, Day 28, Day 42, Day 56 and Day 84). The main efficacy outcomes for the study were change in CRT and visual acuity over time with treatment. […]

Setting [3] is: single patient (FIG. 5), 5 mg s.c. twice daily, study eye given 0.5 mg ranibizumab at week 6.
[4] abbreviates: single patient, aflibercept protocol (FIG. 6).

Where “and” joins values, the source holds several entries; their conditions need not be identical. Equal entries are not always repeated. Entries after “also recorded” stand apart in the source; their conditions may differ.

Chain of HPTP-β (P23467 23-1997): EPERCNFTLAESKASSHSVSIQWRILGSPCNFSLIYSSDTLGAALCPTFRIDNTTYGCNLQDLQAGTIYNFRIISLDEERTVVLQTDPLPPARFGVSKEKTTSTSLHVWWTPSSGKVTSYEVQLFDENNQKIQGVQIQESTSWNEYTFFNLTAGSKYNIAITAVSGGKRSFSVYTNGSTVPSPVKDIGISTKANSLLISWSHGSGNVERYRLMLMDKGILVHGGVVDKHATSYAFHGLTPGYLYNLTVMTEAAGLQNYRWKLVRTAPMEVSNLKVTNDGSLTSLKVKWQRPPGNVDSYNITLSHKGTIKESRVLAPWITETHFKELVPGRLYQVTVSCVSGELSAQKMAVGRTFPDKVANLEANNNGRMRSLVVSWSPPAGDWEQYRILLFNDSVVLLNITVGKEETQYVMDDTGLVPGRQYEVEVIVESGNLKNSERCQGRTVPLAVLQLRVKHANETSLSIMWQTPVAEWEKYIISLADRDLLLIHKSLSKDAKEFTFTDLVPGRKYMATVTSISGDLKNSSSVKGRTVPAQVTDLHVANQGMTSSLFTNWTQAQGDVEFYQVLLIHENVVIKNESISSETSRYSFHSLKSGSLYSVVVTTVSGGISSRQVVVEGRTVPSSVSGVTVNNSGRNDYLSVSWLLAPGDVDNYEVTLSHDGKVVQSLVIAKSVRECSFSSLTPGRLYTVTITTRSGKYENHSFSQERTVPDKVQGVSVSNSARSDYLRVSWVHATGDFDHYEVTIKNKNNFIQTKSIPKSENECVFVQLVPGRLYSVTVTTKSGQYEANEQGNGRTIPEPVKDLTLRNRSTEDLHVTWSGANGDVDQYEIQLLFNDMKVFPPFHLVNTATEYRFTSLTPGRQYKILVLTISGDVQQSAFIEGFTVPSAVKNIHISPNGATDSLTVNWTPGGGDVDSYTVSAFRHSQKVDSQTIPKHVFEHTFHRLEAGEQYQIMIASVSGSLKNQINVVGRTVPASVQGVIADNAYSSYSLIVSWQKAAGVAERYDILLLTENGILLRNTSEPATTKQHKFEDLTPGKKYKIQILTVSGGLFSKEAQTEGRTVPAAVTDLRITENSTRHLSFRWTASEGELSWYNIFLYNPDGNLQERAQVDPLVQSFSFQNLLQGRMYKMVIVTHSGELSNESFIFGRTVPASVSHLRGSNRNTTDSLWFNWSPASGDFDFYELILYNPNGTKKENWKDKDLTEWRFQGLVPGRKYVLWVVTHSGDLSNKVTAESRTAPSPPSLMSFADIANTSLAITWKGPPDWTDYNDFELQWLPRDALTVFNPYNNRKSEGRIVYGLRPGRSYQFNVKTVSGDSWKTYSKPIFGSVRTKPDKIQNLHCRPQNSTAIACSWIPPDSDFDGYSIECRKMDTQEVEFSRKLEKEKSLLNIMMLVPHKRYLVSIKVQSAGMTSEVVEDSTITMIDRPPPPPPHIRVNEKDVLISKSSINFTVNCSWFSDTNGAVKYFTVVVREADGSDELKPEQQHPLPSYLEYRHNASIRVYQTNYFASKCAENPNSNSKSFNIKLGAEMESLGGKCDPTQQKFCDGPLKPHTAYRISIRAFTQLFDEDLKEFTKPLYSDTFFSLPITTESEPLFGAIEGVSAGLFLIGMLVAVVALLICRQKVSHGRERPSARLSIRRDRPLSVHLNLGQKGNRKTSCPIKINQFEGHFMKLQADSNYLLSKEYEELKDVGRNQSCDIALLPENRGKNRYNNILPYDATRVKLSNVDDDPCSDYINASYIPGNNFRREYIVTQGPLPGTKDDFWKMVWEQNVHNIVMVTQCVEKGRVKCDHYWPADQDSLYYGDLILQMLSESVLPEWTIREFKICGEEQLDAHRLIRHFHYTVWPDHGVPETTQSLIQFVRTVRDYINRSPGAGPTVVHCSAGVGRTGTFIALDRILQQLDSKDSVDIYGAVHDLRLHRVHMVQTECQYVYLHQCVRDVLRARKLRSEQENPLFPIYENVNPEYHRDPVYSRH

Regarding `COC(=O)N[C@@H](Cc1ccccc1)C(=O)N[C@@H](Cc1ccc(NS(=O)(=O)O)cc1)c1nc(-c2ccccc2)cs1` [AA21, 4-{(S)-2-[(S)-2-(Methoxycarbonylamino)-3-phenylpropanamido]-2-(4-phenylthiazol-2-yl)ethyl}phenylsulfamic acid], the 50% inhibitory concentration (IC50) on HPTP-β is below 2 pM.
With `COC(=O)N[C@@H](Cc1ccccc1)C(=O)N[C@@H](Cc1ccc(NS(=O)(=O)O)cc1)c1csc(-c2cccs2)n1` [the disclosed compound, 4-{(S)-2-[(S)-2-(methoxycarbonylamino)-3-phenylpropanamido]-2-[2-(thiophen-2-yl)thiazol-4-yl]ethyl}phenylsulfamic acid], the “Central Foveal Reduction, individual patient eye” value in assay [1] (5 mg s.c. twice daily 28 days, then ranibizumab (0.3 or 0.5 mg) or aflibercept (2 mg) intravitreal, 14-28 days post anti-VEGF, 7 eyes (FIG. 2)) is 50-100 μm and 150-200 μm and 200-250 μm and 300-350 μm and 350-400 μm and 450-500 μm. The “mean change in Central Foveal Thickness” value in assay [1] (5 mg s.c. twice daily 28 days, then ranibizumab or aflibercept intravitreal, 14-28 days post anti-VEGF, 7 eyes (FIG. 2)) was −289 μm. In assay [1] (combination versus FIG. 1 benchmark), the “CFT reduction relative to reduction after ranibizumab in benchmark study” value is given as “approximately double”. Moreover, the “CFT of study eye at week 6” value in assay [1] (single patient (FIG. 5), 5 mg s.c. twice daily, before ranibizumab to study eye) is recorded as “approximately 775 μm”. Further, the “change in CFT, fellow eye, after ranibizumab at week 3” value in assay [1] (single patient (FIG. 5), 5 mg s.c. twice daily, fellow eye given 0.5 mg ranibizumab at day 21, by week 4) was “approximately 430 μm and 350 μm”. For the same compound, in assay [1] (single patient (FIG. 5), 5 mg s.c. twice daily, fellow eye given 0.5 mg ranibizumab at week 3), the “reduction in CFT, study eye, day 21 to day 28” value is reported as “approximately 300 μm; also recorded: approximately 250 μm”. Further, in assay [1] (setting [3]), the “CFT of study eye at week 8” value is listed as “approximately 180 μm; also recorded: approximately 225 μm” and the “overall reduction in CFT, study eye, by week 8” value is “approximately 690 μm; also recorded: approximately 500 μm”. In addition, the “CFT reduction, fellow eye, after rescue” value in assay [1] (single patient (FIG. 6), 5 mg s.c. twice daily, fellow eye rescued with 2 mg aflibercept) is “approximately 400 μm”. In assay [1] (single patient (FIG. 6), 5 mg s.c. twice daily, study eye rescued with 2 mg aflibercept at week 6), the “CFT reduction, study eye, after rescue” value is given as “approximately 310 μm; also recorded: approximately 300 μm”. Further, in assay [1] (setting [4]), the “reduction of CFT from onset of the study, non-treated eye” value is on record as around 280 μm and the “reduction of CFT from onset of the study, study eye” value is recorded as “approximately 300 μm”. Besides, the “mean change in Visual Acuity” value in assay [2] is 9 letters.
